As a reminder, the EC50 is the concentration at which the effect is half-maximal. One may read the AC50 as the concentration giving half of the maximal activity seen.

Calls of active or inactive are those of the source. For most assays here, no stated cut-off is given here; in the data, actives have a measured EC50 and inactives only a lower limit. Where only a bound is given, the exact number is not on record here.

The source of these data is ChEMBL document CHEMBL1201862, “PubChem BioAssay data set” (2004).

A short description of assay [1]: Luminescence Cell-Based Dose Response HTS to Identify Activators of Luciferase Translation or Activity in H4 […] Cells. [Related pubchem assays: 1829 (Project Summary), 1814 (Primary HTS)]. The assay is classed as functional.
A short description of assay [2]: Luminescence Cell-Based Dose Confirmation HTS to Identify Activators of 5'UTR Stem-Loop Driven Alpha-Synuclein mRNA Translation in H4 Neuroglioblastoma Cells. [Related pubchem assays: 1829 (Project Summary), 1814 (Primary HTS)]. It is filed as functional.
The test system of another assay is H4. The assay is described as follows: Luminescence Cell-Based Dose Response HTS to Identify Activators of 5'UTR Stem-Loop Driven Prion Protein mRNA Translation in H4 Neuroglioblastoma Cells. [Related pubchem assays: 1829 (Project Summary), 1814 (Primary HTS)]. It is filed as functional. Conditions: Homo sapiens.
In the next assay the target is Cytochrome P450 3A4 (Homo sapiens, UniProt P08684).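 Further: CYP3A4 tested as one member of a cytochrome P450 panel screen.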
Sequence of Cytochrome P450 3A4 (P08684 whole entry): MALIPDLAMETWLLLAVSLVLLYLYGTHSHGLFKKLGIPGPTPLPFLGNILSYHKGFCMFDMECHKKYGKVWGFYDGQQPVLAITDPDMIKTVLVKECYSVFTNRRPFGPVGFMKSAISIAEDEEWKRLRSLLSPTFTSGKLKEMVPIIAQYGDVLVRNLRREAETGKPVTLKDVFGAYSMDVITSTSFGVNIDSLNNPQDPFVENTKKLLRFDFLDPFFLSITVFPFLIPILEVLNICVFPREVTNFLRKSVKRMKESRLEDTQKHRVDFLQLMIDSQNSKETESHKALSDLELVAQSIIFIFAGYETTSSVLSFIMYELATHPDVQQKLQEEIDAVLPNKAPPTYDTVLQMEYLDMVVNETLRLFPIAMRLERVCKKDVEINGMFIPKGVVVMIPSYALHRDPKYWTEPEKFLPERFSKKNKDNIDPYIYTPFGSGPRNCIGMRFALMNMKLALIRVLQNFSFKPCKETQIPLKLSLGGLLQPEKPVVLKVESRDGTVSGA
Assay [3] is described as follows: cells. It is filed as functional, cell-based.
Assay [4] is described as follows: cells. The assay is classed as functional, cell-based. The source holds these as a separate data set.

With `CCC(C)[C@H](NC(=O)N1CC(=O)Nc2ccccc21)C(=O)Nc1ccccc1C` (stereo not given in full), the EC50 was 27.5 µM (active) in assay [1], > 120 µM (not active) in assay [2] and > 120 µM (not active) with H4.
Take `O=C(CSc1nc(-c2ccc(F)cc2)cs1)N1CCOCC1`: the EC50 was 7.79 µM (active) in assay [1], 10.1 µM (active) in assay [2] and 14.3 µM (active) in the assay on H4.
Consider `Cc1noc(C)c1COC(=O)c1ccc(-c2nc3ccccc3s2)s1`, for which the results for the EC50 (in assay [1]; in assay [2]; in the assay on H4) were 0.245 µM (active), 0.414 µM (active) and 13 µM (active), respectively.
The matching figures for `CC(C)(C)c1ccc(OC(=O)N2CCOCC2)cc1`: > 120 µM (not active), 23.7 µM (active) and 1.3 µM (active).
The matching figures for `Cc1ccnc(NC(=S)NC(=O)/C=C/c2ccco2)c1`: 9.64 µM (active), 0.458 µM (active) and > 120 µM (not active).
On to `C/C(CCN1CCc2nc(-c3ccccc3)c(-c3ccccc3)cc2C1)=N\OC[C@@H](C)[C@H](OCc1ccccc1)C(C)C`, for which the AC50 at Cytochrome P450 3A4 is 3.98 µM (inconclusive).
`c1ccc(-c2ccc(-c3csnn3)cc2)cc1`: the EC50 was 0.326 µM (active) in assay [1], 0.186 µM (active) in assay [2] and 27.5 µM (active) in the assay on H4.
As to `O=C(O)c1cc(S(=O)(=O)N2CCCCC2)ccc1F`, on Cytochrome P450 3A4, the AC50 was 1.26 µM (inconclusive).
`Cc1cccc(C)c1OC[C@@H](N)C(C)C`: the AC50 at Cytochrome P450 3A4 was 20 µM (inconclusive).
Consider `O=C(CN1CCCC1)Nc1nc(-c2ccc3c(c2)CCN3C(=O)c2ccccc2F)cs1`, for which the EC50 in assay [1] is 24.4 µM (active); in assay [2], 12.9 µM (active); in the assay on H4 it was 16.7 µM (inconclusive).
The matching figures for `CC(=O)C(Sc1nn(C)c(=S)s1)C(=O)Nc1ccccc1` (stereo not given): 12.4 µM (active), 23.9 µM (active) and 14.3 µM (active).
On to `CC1CCc2c(sc3nc(CSc4n[nH]c(N)n4)nc(O)c23)C1` (stereo not given), for which the values for the EC50 (in assay [1]; in assay [2]; in the assay with H4) were 27.2 µM (active), 15.5 µM (active) and 13.2 µM (active), respectively.
Take `O=S(=O)(c1ccc(Cl)cc1)N1c2ccccc2Oc2nc3ccccc3nc21`: the EC50 (in assay [1]; in assay [2]; with H4) was > 120 µM (not active) each time.
Regarding `COc1cc(C)ccc1OCCOc1ccccc1Cl`, the half-maximal effective concentration (EC50) is 87.3 µM (active) in assay [1], 32.5 µM (active) in assay [2] and 18.6 µM (active) in the assay on H4.
As for `c1ccc(C2=Nc3ccccc3SC2c2nc3ccccc3[nH]2)cc1` (stereo not given), the EC50 in assay [1] is 24.1 µM (active); in assay [2], 0.47 µM (active); with H4, > 120 µM (not active).
Consider `Cc1nc2cnc(N3CCNCC3)nc2n(-c2ccccc2)c1=O`, for which the AC50 on Cytochrome P450 3A4 is 31.6 µM (inconclusive).
`Cc1cc(N2CCCC2)ccc1/C=C1\NC(=S)N(C)C1=O`: the figures for the EC50 (in assay [1]; in assay [2]; in the assay on H4) were 20 µM (active), 22.1 µM (active) and 35.5 µM (active), respectively.
The matching figures for `COC(=O)CSc1nc2ccccn2c(=O)c1C=O`: 18.5 µM (active), 28.5 µM (active) and > 120 µM (inconclusive).
Regarding `O=C(COC(=O)Cc1ccc(S(=O)(=O)N2CCCCC2)s1)Nc1ccc2c(c1)OCO2`, the EC50 in the assay “cells [3]” and in “cells [4]” was > 350 µM (not active) each time.
Turning to `CC(Sc1nnc(COc2ccc([N+](=O)[O-])cc2)n1C)C(=O)O` (stereo not given), the EC50 in the assay “cells [3]” and in the assay “cells [4]” was > 350 µM (not active) throughout.
